Laboratory results as given in patent publication US9216999B2, “Substituted pyrrolo[2,3-h][1,6]naphthyridines and compositions thereof as JAK inhibitors” (priority 2011, dated 2015).

Experiments:
Assay type in all cases: biochemical
Details in all cases: ATP 100 μM
JAK1 = JAK1 (Homo sapiens (Human), UniProt P23458); assay: Enzyme assay (Assay Example^a 1), JAK1
JAK2 = JAK2 (Homo sapiens (Human), UniProt O60674); assay: Enzyme assay (Assay Example^a 1), JAK2
JAK3 = JAK3 (Homo sapiens (Human), UniProt P52333); assay: Enzyme assay (Assay Example^a 1), JAK3
Tyk2 = Tyk2 (Homo sapiens (Human), UniProt P29597); assay: Enzyme assay (Assay Example^a 1), Tyk2
Sequence of Tyk2 (P29597 whole entry): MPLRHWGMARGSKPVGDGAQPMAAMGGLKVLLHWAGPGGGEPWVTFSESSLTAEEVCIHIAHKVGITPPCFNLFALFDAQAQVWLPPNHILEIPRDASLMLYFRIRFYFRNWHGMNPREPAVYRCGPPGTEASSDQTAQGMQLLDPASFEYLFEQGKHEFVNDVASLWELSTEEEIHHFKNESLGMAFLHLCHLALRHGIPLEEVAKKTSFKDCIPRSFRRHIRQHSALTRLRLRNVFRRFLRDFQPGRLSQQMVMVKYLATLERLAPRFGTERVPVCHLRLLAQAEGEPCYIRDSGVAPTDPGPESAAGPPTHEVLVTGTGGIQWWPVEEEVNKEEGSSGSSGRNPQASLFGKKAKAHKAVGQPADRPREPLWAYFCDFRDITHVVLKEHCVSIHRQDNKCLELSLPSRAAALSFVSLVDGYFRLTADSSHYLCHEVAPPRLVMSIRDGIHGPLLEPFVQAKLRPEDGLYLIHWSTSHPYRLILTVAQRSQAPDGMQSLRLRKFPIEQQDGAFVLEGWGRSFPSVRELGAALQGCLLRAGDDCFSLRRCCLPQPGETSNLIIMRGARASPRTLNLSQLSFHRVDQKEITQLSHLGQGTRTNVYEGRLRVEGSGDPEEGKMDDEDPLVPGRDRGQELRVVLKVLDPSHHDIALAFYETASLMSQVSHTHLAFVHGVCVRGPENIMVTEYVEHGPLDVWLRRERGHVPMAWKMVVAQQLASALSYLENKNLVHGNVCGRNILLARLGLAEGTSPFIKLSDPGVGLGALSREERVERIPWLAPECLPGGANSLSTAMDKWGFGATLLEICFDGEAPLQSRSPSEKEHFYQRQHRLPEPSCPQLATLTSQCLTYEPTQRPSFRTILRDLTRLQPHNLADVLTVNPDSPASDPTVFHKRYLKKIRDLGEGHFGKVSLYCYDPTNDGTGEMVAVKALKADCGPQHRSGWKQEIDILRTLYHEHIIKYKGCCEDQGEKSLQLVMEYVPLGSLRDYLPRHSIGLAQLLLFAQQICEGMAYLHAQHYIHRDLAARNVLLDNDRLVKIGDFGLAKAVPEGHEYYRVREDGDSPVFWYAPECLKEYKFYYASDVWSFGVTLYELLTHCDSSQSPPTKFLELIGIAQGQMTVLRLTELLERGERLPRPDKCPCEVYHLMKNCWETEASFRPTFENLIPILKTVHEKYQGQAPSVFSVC

Sequence of JAK3 (P52333 whole entry): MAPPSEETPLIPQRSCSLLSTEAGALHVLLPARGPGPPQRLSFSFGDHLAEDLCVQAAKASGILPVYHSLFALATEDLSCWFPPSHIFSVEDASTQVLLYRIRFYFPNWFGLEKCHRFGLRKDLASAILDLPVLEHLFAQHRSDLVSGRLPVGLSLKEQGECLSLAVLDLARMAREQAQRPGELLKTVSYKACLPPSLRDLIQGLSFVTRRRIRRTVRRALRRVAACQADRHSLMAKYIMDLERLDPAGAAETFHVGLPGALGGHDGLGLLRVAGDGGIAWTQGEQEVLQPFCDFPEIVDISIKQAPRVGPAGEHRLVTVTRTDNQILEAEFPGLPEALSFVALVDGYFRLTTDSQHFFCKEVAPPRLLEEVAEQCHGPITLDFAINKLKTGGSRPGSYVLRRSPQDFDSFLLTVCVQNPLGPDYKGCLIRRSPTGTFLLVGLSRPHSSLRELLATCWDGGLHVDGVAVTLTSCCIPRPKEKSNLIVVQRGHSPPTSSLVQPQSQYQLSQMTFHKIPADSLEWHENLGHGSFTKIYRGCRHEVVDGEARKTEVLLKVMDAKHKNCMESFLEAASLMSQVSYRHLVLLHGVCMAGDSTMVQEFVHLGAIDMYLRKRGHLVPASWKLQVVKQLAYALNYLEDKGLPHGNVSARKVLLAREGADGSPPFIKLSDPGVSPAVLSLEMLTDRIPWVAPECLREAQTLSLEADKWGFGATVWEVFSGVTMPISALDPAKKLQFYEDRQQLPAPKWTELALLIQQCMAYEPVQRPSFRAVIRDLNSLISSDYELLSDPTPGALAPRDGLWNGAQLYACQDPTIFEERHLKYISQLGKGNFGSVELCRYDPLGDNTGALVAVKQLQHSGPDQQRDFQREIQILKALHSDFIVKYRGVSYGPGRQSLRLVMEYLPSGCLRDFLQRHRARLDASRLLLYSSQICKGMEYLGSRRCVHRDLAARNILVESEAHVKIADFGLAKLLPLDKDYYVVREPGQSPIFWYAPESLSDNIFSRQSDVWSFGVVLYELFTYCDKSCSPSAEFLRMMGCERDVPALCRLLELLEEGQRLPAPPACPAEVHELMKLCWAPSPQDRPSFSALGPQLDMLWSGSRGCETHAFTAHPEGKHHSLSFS

SMILES: OCCN1CCN(C[C@H]2CC[C@H](c3nnn4cnc5[nH]ccc5c34)CC2)CC1 [compound 315, 2-(4-{[trans-4-(7H-pyrrolo[3,2-e][1,2,3]triazolo[1,5-c]pyrimidin-1-yl)cyclohexyl]methyl}piperazin-1-yl)ethanol]
- IC50 (JAK1): 0.01 µM
- IC50 (JAK2): 0.2 µM
- IC50 (JAK3): > 1 µM
- IC50 (Tyk2): 0.53 µM

SMILES: c1cc2c(ncn3nnc([C@H]4CC[C@H](CNC56CC(C5)C6)CC4)c23)[nH]1 [compound 316, N-{[trans-4-(7H-pyrrolo[3,2-e][1,2,3]triazolo[1,5-c]pyrimidin-1-yl)cyclohexyl]methyl}bicyclo[1.1.1]pentan-1-amine]
- IC50 (JAK1): 0.013 µM
- IC50 (JAK2): 0.099 µM
- IC50 (JAK3): > 1 µM
- IC50 (Tyk2): 0.59 µM

SMILES: FC(F)(F)C(NC[C@H]1CC[C@H](c2nnn3cnc4[nH]ccc4c23)CC1)C(F)(F)F [compound 317, N-{[trans-4-(7H-pyrrolo[3,2-e][1,2,3]triazolo[1,5-c]pyrimidin-1-yl)cyclohexyl]methyl}-1,1,1,3,3,3-hexafluoropropan-2-amine]
- IC50 (JAK1): 0.0013 µM
- IC50 (JAK2): 0.016 µM
- IC50 (JAK3): 0.47 µM
- IC50 (Tyk2): 0.62 µM

SMILES: CC(=O)N[C@@H]1CCN(C[C@H]2CC[C@H](c3nnn4cnc5[nH]ccc5c34)CC2)C1 [compound 318, N-((R)-1-{[trans-4-(7H-pyrrolo[3,2-e][1,2,3]triazolo[1,5-c]pyrimidin-1-yl)cyclohexyl]methyl}pyrrolidin-3-yl)acetamide]
- IC50 (JAK1): 0.0048 µM
- IC50 (JAK2): 0.057 µM
- IC50 (JAK3): > 1 µM
- IC50 (Tyk2): 0.61 µM

SMILES: CC(=O)N[C@H]1CCN(C[C@H]2CC[C@H](c3nnn4cnc5[nH]ccc5c34)CC2)C1 [compound 319, N-((S)-1-{[trans-4-(7H-pyrrolo[3,2-e][1,2,3]triazolo[1,5-c]pyrimidin-1-yl)cyclohexyl]methyl}pyrrolidin-3-yl)acetamide]
- IC50 (JAK1): 0.027 µM
- IC50 (JAK2): 0.23 µM
- IC50 (JAK3): > 1 µM
- IC50 (Tyk2): > 1 µM

SMILES: O=C(N[C@@H]1CCN(C[C@H]2CC[C@H](c3nnn4cnc5[nH]ccc5c34)CC2)C1)C(F)(F)F [compound 320, N-((R)-1-{[trans-4-(7H-pyrrolo[3,2-e][1,2,3]triazolo[1,5-c]pyrimidin-1-yl)cyclohexyl]methyl}pyrrolidin-3-yl)-2,2,2-trifluoroacetamide]
- IC50 (JAK1): 0.0076 µM
- IC50 (JAK2): 0.057 µM
- IC50 (JAK3): > 1 µM
- IC50 (Tyk2): 0.86 µM

SMILES: O=C(N[C@H]1CCN(C[C@H]2CC[C@H](c3nnn4cnc5[nH]ccc5c34)CC2)C1)C(F)(F)F [compound 321, N-((S)-1-{[trans-4-(7H-pyrrolo[3,2-e][1,2,3]triazolo[1,5-c]pyrimidin-1-yl)cyclohexyl]methyl}pyrrolidin-3-yl)-2,2,2-trifluoroacetamide]
- IC50 (JAK1): 0.024 µM
- IC50 (JAK2): 0.21 µM
- IC50 (JAK3): > 1 µM
- IC50 (Tyk2): > 1 µM

SMILES: Fc1ccc(C2(NC[C@H]3CC[C@H](c4nnn5cnc6[nH]ccc6c45)CC3)CCC2)cc1 [compound 324, N-{[trans-4-(7H-pyrrolo[3,2-e][1,2,3]triazolo[1,5-c]pyrimidin-1-yl)cyclohexyl]methyl}-1-(4-fluorophenyl)cyclobutanamine]
- IC50 (JAK1): 0.0034 µM
- IC50 (JAK2): 0.034 µM
- IC50 (JAK3): 0.66 µM
- IC50 (Tyk2): 0.75 µM

SMILES: COCCN(CCOC)C[C@H]1CC[C@H](c2nnn3cnc4[nH]ccc4c23)CC1 [compound 326, N-{[trans-4-(7H-pyrrolo[3,2-e][1,2,3]triazolo[1,5-c]pyrimidin-1-yl)cyclohexyl]methyl}-2-methoxy-N-(2-methoxyethyl)ethanamine]
- IC50 (JAK1): 0.048 µM
- IC50 (JAK2): 0.31 µM
- IC50 (JAK3): > 1 µM
- IC50 (Tyk2): > 1 µM

SMILES: OCC1(NC[C@H]2CC[C@H](c3nnn4cnc5[nH]ccc5c34)CC2)CC1 [compound 327, [1-({[trans-4-(7H-pyrrolo[3,2-e][1,2,3]triazolo[1,5-c]pyrimidin-1-yl)cyclohexyl]methyl}amino)cyclopropyl]methanol]
- IC50 (JAK1): 0.007 µM
- IC50 (JAK2): 0.054 µM
- IC50 (JAK3): 0.79 µM
- IC50 (Tyk2): 0.55 µM
